Source: patent US20150004110A1, “NOVEL ANTI-AGING AND DEPIGMENTING COSMETIC COMPOSITIONS” (DIVERCHIM, priority 2011, published 2015)

How the values were obtained:
interleukin-8 (IL-8) = assay: Release of IL-8 by NCTC-2544 keratinocytes stimulated by PMA; type: cell-based, human; conditions: NCTC-2544 stimulated by PMA
Protocol: (§1) The effects of compound 1 were evaluated on two routes of inflammation, the “chemokine” route and the “prostaglandin” route, by measuring the release of interleukin-8 (IL-8) and of prostaglandin E2 (PGE2) by a human keratinocyte line NCTC-2544 stimulated by phorbol-myristate acetate (PMA).

[1] = system: matrix metallopeptidase gene MMP9; assay: RT-qPCR expression of MMP9 in keratinocytes; type: cell-based, human; conditions: 10 μM
Protocol: The expression of the specific markers was evaluated by RT-qPCR (reverse transcription quantitative polymerase chain reaction) on messenger RNAs extracted from the cell lawns from each treatment. The transcriptomic profile contains 64 genes selected for their importance in keratinocyte differentiation. The PCR reactions (polymerase chain reactions) were carried out by quantitative PCR with the “Light Cycler” system (Roche Molecular System Inc.) according to the procedures recommended by the supplier. Normal human epidermal keratinocytes were incubated in the presence of compound 1 or a reference with calcium chloride. The expression of the specific markers was evaluated by RT-qPCR on the messenger RNAs extracted from the cell lawns from each treatment.

PPARγ (h) [2] = target: T1, PPARγ (h) (Homo sapiens, UniProt P37231); assay: PPARγ agonist effect, coactivator Alpha screen; type: biochemical
T1 construct: Cerep (contract laboratory that ran the assay)
T1 sequence (P37231 1-505): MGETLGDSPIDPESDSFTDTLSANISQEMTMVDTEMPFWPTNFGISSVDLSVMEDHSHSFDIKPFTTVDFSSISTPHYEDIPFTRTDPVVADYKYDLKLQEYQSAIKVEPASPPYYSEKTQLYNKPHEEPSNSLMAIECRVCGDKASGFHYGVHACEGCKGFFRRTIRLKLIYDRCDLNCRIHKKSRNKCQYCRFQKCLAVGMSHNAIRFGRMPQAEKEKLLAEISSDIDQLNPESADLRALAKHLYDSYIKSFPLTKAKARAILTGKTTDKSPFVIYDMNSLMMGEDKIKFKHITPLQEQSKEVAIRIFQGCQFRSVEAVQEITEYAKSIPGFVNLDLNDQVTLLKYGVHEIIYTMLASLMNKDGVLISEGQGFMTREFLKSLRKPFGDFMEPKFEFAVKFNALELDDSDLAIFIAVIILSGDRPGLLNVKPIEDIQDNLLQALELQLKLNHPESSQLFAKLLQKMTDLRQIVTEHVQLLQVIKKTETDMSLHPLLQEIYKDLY
Protocol: (§2) The agonist or antagonist activity of compound 1 on the PPAR receptors was tested by fluorescence techniques. • Material and Methods
(§3) The results are expressed as: • percentage of control specific agonist response (measured specific response/control specific agonist response)×100) and • percentage inhibition of the control specific agonist response (100−((measured specific response)/control specific agonist response)×100)) obtained in the presence of compound 1.
(§4) The EC50 values (concentration at which the maximum specific response is 50%) and the IC50 values (concentration at which the maximum control specific agonist response is inhibited by 50%) are determined by non-linear regression analysis of the concentration-response curves with a mean replicated value using adjustment of Hill's equation

collagen III = assay: Staining and immunolabelling of skin explant sections: collagen III; type: cell-based, human; conditions: treated skin explant sections
Protocol: 1. Preparation of the explants • During abdominoplasty of a person, 45 skin explants were prepared. The explants were put in BEM medium (BIO-EC's Explants Medium) for survival at 37° C. in humid atmosphere, enriched with 5% CO2.
2. Application of the products • The solutions are prepared in DMSO from pure products, in order to obtain final concentrations of […] by incorporating an identical volume of 10 μl in each well and for each treatment. The treatment was carried out in the survival medium on days 0, 1, 2, 5 and 7.
3. Taking samples • On D0, the 3 explants of batch TO were taken and each explant was cut in two. One part was fixed in buffered formol for observation of the general morphology. The other was frozen and stored at −80° C. • On D5 and D9, 3 explants from each batch were taken and treated in the same way.
4. Histological treatment • After fixation for 48 hours in buffered formol, the samples were dehydrated and embedded in paraffin using a Leica 1020 automatic dehydrator. They were embedded according to procedure MO-H-153 using a Leica EG 1160 coating station. Sections of 5 μm were prepared according to procedure MO-H-173 using a Minot-type microtome, Leica RM 2125 and mounted on Superfrost® histological glass slides.
6. Staining and immunolabelling
Immunolabelling will be carried out on sections with the appropriate antibody. […]

PPARγ (h) [3] = target: T1, PPARγ (h); assay: PPARγ competitive radioligand binding assay (Cerep)
Protocol: The affinity of compound 1 for the PPAR receptors (α and γ) was tested by in vitro binding assays (tests carried out by the company Cerep).
This is a nuclear receptor competitive binding assay, between a radiolabelled ligand and the test molecule (here compound 1).
The principle of the technique consists of measuring the displacement of the radioactive ligand bound to the receptor by the test molecule. • Material and Methods
The specific binding of the ligand is defined by the difference between total binding and non-specific binding determined in the presence of an excess of unlabelled ligand.
The results are expressed as: • percentage of control specific binding ((measured specific binding/control specific binding)×100)) • percentage of inhibition of control specific binding ((100−(measured specific binding/control specific binding)) obtained in the presence of compound 1.
The values of IC50 (concentration at which the maximum control specific binding is inhibited by 50%), and the Hill coefficient (nH) are determined by non-linear regression analysis of the curves of competition with a mean replicated value using adjustment of Hill's equation
The inhibition constant (Ki) was calculated using the Cheng-Prusoff equation

PPARγ (h) [4] = target: T1, PPARγ (h); assay: PPARγ antagonist effect, coactivator Alpha screen; type: biochemical
Protocol: as §2, §3, §4
For the antagonists, the apparent dissociation constants (KB) were calculated using the modified Cheng-Prusoff equation

filaggrin = assay: In situ immunolabelling of filaggrin in keratinocytes; type: cell-based; conditions: normal human epidermal keratinocytes
Excerpt: Transglutaminase K, TGK, and filaggrin are two protein markers of epidermal differentiation involved in arrangement of the keratin filaments and formation of the envelope of the stratum corneum.

prostaglandin E2 (PGE2) = assay: Release of PGE2 by NCTC-2544 keratinocytes stimulated by PMA; type: cell-based, human; conditions: NCTC-2544 stimulated by PMA
Protocol: as §1

Expression of the MMP9 gene [1]: inhibition of expression
% Control agonist response (PPARγ (h) [2]; 10^−5 M): 0%
% Control agonist response (PPARγ (h) [2]; 10^−6 M): 0%
% Control agonist response (PPARγ (h) [2]; 10^−7 M): 0%
PPARγ agonist activity (conclusion in words) (PPARγ (h) [2]; 10^−7 to 10^−5 M): not an agonist
Interpretation of the 49% inhibition of PPARγ specific binding (PPARγ (h) [3]; 10^−5 M): slight to moderate effect
inhibition at 10 µM (PPARγ (h) [3]; 10^−5 M, agonist radioligand, read-out: % Inhibition of control specific binding): 49%
inhibition at 1 µM (PPARγ (h) [3]; 10^−6 M, agonist radioligand, read-out: % Inhibition of control specific binding): 1%
inhibition at 0.1 µM (PPARγ (h) [3]; 10^−7 M, agonist radioligand, read-out: % Inhibition of control specific binding): 0%
Activity with respect to the PPARγ receptor (binding, conclusion in words) (PPARγ (h) [3]; 10^−7 to 10^−5 M): no activity
inhibition at 10 µM (PPARγ (h) [4]; 10^−5 M, read-out: % Inhibition of control agonist response): 0%
inhibition at 1 µM (PPARγ (h) [4]; 10^−6 M, read-out: % Inhibition of control agonist response): 0%
inhibition at 0.1 µM (PPARγ (h) [4]; 10^−7 M, read-out: % Inhibition of control agonist response): 3%
PPARγ antagonist activity (conclusion in words) (PPARγ (h) [4]; 10^−7 to 10^−5 M): not an antagonist
Structure (SMILES): Oc1ccccc1CCOc1ccc(F)cc1 [Compound 1, 2-[2-(4-fluoro-phenoxy)-ethyl]-phenol]
Release of IL-8 (interleukin-8 (IL-8)): without altering
Collagen III in the papillary dermis (collagen III): very slight densification
Protein expression of filaggrin (filaggrin): concentration-dependent stimulation of protein expression
Release of PGE2 (prostaglandin E2 (PGE2)): concentration-dependent inhibition
